Measurements as given in patent publication US9062124B2, “GIP-based mixed agonists for treatment of metabolic disorders and obesity” (priority 2008, dated 2015).
Where a SMILES comes first, the peptide text is derived from it. [ ]: non-standard residue; d: D form. Aib = CC(C)(N)C(=O)O

Key:
Assay type in all cases: cell-based
[1] = test system: glucagon receptor, GLP-1 receptor or GIP receptor; assay: Agonist profile across receptors assigned from the cAMP reporter assay data; details: assigned from the in vitro EC50 data of Tables 1-4
GLP-1 receptor = biological target: T1, GLP-1 receptor (Homo sapiens, UniProt P43220); assay: cAMP synthesis functional assay (firefly luciferase reporter in HEK293 cells), GLP-1 receptor; details: for EC50: GLP-1 Receptor EC50, cAMP luciferase reporter assay as in Example 16; for GLP-1 Receptor relative activity: relative to the standard (Std.) EC50 of the same run
T1 construct: expressed in transfected cells; host or cells: HEK293

glucagon receptor = biological target: T2, glucagon receptor (Homo sapiens, UniProt P47871); assay: cAMP synthesis functional assay (firefly luciferase reporter in HEK293 cells), glucagon receptor; details: for EC50: Glucagon Receptor EC50, cAMP luciferase reporter assay as in Example 16; for Glucagon Receptor relative activity: relative to the standard (Std.) EC50 of the same run
T2 construct: expressed in transfected cells; host or cells: HEK293

GIP receptor = biological target: T3, GIP receptor (Homo sapiens, UniProt P48546); assay: cAMP synthesis functional assay (firefly luciferase reporter in HEK293 cells), GIP receptor; details: for GIP Receptor relative activity: relative to the standard (Std.) EC50 of the same run; for EC50: GIP Receptor EC50, cAMP luciferase reporter assay as in Example 16
T3 construct: expressed in transfected cells; host or cells: HEK293
T3 sequence (P48546 22-466): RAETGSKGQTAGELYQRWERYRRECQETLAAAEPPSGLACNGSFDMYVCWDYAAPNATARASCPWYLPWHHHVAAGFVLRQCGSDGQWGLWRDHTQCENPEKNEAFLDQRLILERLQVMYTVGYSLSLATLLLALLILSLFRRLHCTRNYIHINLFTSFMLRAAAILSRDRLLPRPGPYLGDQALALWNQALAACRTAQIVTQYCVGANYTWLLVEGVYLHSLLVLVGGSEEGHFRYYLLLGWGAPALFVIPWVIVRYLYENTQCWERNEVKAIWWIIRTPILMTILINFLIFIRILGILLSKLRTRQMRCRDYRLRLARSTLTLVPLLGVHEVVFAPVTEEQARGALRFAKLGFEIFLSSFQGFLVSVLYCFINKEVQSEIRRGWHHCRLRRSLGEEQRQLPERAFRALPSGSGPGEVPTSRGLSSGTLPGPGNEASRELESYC

T1 sequence (P43220 24-463, species assumed): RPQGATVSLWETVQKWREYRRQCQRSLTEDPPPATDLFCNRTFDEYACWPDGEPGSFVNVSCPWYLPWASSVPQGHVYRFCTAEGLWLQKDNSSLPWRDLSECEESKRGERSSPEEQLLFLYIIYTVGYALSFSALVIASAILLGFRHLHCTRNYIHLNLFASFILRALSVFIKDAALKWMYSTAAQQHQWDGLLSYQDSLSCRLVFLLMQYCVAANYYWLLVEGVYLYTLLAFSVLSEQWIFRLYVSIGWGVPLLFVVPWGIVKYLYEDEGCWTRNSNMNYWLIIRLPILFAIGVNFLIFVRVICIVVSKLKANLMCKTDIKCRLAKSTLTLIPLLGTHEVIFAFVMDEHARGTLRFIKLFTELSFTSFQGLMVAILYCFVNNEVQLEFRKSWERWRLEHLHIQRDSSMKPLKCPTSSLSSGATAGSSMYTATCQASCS
T2 sequence (P47871 26-477): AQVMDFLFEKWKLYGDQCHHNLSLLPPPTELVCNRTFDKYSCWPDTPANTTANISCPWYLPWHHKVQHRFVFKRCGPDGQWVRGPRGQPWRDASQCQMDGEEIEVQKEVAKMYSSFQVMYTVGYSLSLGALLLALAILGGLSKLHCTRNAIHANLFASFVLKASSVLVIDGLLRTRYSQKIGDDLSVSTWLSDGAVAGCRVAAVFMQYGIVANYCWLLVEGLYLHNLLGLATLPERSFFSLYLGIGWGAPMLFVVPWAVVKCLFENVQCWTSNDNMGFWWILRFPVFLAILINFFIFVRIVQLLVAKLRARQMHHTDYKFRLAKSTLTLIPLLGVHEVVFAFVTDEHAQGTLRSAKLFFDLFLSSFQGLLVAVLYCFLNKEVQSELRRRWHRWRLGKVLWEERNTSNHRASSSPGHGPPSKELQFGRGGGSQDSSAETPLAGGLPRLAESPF

Compound	receptor activity profile (glucagon / GLP-1 / GIP agonism) [1]	EC50 (GLP-1 receptor) [nM]	GLP-1 Receptor relative activity (GLP-1 receptor) [%]	EC50 (glucagon receptor) [nM]	Glucagon Receptor relative activity (glucagon receptor) [%]	GIP Receptor relative activity (GIP receptor) [%]	EC50 (GIP receptor) [nM]
CC[C@H](C)[C@H](NC(=O)[C@H](CO)NC(=O)[C@H](Cc1ccc(O)cc1)NC(=O)[C@H](CC(=O)O)NC(=O)[C@H](CO)NC(=O)[C@@H](NC(=O)[C@H](Cc1ccccc1)NC(=O)[C@@H](NC(=O)CNC(=O)[C@H](CCC(N)=O)NC(=O)C(C)(C)NC(=O)[C@@H](N)Cc1ccc(O)cc1)[C@@H](C)O)[C@@H](C)O)C(=O)N[C@@H](Cc1ccc(O)cc1)C(=O)N[C@@H](CC(C)C)C(=O)N[C@@H](CC(=O)O)C(=O)N[C@@H](CCCCN)C(=O)N[C@@H](CCC(N)=O)C(=O)N[C@@H](C)C(=O)N[C@@H](C)C(=O)NC(C)(C)C(=O)N[C@@H](CCC(=O)O)C(=O)N[C@@H](Cc1ccccc1)C(=O)N[C@H](C(=O)N[C@@H](CC(N)=O)C(=O)N[C@@H](Cc1c[nH]c2ccccc12)C(=O)N[C@@H](CC(C)C)C(=O)N[C@@H](CC(C)C)C(=O)N[C@@H](C)C(=O)NCC(=O)NCC(=O)N1CCC[C@H]1C(=O)N[C@@H](CO)C(=O)N[C@@H](CO)C(=O)NCC(=O)N[C@@H](C)C(=O)N1CCC[C@H]1C(=O)N1CCC[C@H]1C(=O)N1CCC[C@H]1C(=O)N[C@@H](CO)C(=O)N[C@@H](CCCCN)C(N)=O)C(C)C [mt-280] (H-Y[Aib]QGTFTSDYSIYLDKQAA[Aib]EFVNWLLAGGPSSGAPPPSK-NH2; N-terminus assumed)	exhibited activity at the GIP, GLP-1, and glucagon receptors	0.0126	153.17	0.0677	74.74	159.06	–
CC[C@H](C)[C@H](NC(=O)[C@H](CO)NC(=O)[C@H](CCCCN)NC(=O)[C@H](CC(=O)O)NC(=O)[C@H](CO)NC(=O)[C@@H](NC(=O)[C@H](Cc1ccccc1)NC(=O)[C@@H](NC(=O)CNC(=O)[C@H](CCC(=O)O)NC(=O)C(C)(C)NC(=O)[C@@H](N)Cc1ccc(O)cc1)[C@@H](C)O)[C@@H](C)O)C(=O)N[C@@H](Cc1ccc(O)cc1)C(=O)N[C@@H](CC(C)C)C(=O)N[C@@H](CC(=O)O)C(=O)N[C@@H](CCCCN)C(=O)N[C@@H](CCC(N)=O)C(=O)N[C@@H](C)C(=O)N[C@@H](C)C(=O)NC(C)(C)C(=O)N[C@@H](CCC(=O)O)C(=O)N[C@@H](Cc1ccccc1)C(=O)N[C@H](C(=O)N[C@@H](CC(N)=O)C(=O)N[C@@H](Cc1c[nH]c2ccccc12)C(=O)N[C@@H](CC(C)C)C(=O)N[C@@H](CC(C)C)C(=O)N[C@@H](C)C(=O)NCC(N)=O)C(C)C [mt-285] (H-Y[Aib]EGTFTSDKSIYLDKQAA[Aib]EFVNWLLAG-NH2; N-terminus assumed)	exhibited activity at only the GIP receptor	0.784	0.75	12.6	0.23	36.43	–
CCCCCCCCCCCCCC(=O)NCCCC[C@H](NC(=O)[C@H](CO)NC(=O)[C@@H]1CCCN1C(=O)[C@@H]1CCCN1C(=O)[C@@H]1CCCN1C(=O)[C@H](C)NC(=O)CNC(=O)[C@H](CO)NC(=O)[C@H](CO)NC(=O)[C@@H]1CCCN1C(=O)CNC(=O)CNC(=O)[C@H](C)NC(=O)[C@H](CC(C)C)NC(=O)[C@H](CC(C)C)NC(=O)[C@H](Cc1c[nH]c2ccccc12)NC(=O)[C@H](CS)NC(=O)[C@@H](NC(=O)[C@H](Cc1ccccc1)NC(=O)[C@H](CCC(=O)O)NC(=O)C(C)(C)NC(=O)[C@H](C)NC(=O)[C@H](C)NC(=O)[C@H](CCC(N)=O)NC(=O)[C@H](CCCCN)NC(=O)[C@H](CC(=O)O)NC(=O)[C@H](CC(C)C)NC(=O)[C@H](Cc1ccc(O)cc1)NC(=O)[C@@H](NC(=O)[C@H](CO)NC(=O)[C@H](Cc1ccc(O)cc1)NC(=O)[C@H](CC(=O)O)NC(=O)[C@H](CO)NC(=O)[C@@H](NC(=O)[C@H](Cc1ccccc1)NC(=O)[C@@H](NC(=O)CNC(=O)[C@H](CCC(N)=O)NC(=O)C(C)(C)NC(=O)[C@@H](N)Cc1ccc(O)cc1)[C@@H](C)O)[C@@H](C)O)[C@@H](C)CC)C(C)C)C(N)=O [mt-286]	exhibited activity at the GIP, GLP-1, and glucagon receptors	0.0225	52.00	0.0612	84.80	68.55	0.0159
CCCCCCCCCCCCCCCC(=O)NCCCC[C@H](NC(=O)[C@H](CO)NC(=O)[C@@H]1CCCN1C(=O)[C@@H]1CCCN1C(=O)[C@@H]1CCCN1C(=O)[C@H](C)NC(=O)CNC(=O)[C@H](CO)NC(=O)[C@H](CO)NC(=O)[C@@H]1CCCN1C(=O)CNC(=O)CNC(=O)[C@H](C)NC(=O)[C@H](CC(C)C)NC(=O)[C@H](CC(C)C)NC(=O)[C@H](Cc1c[nH]c2ccccc12)NC(=O)[C@H](CS)NC(=O)[C@@H](NC(=O)[C@H](Cc1ccccc1)NC(=O)[C@H](CCC(=O)O)NC(=O)C(C)(C)NC(=O)[C@H](C)NC(=O)[C@H](C)NC(=O)[C@H](CCC(N)=O)NC(=O)[C@H](CCCCN)NC(=O)[C@H](CC(=O)O)NC(=O)[C@H](CC(C)C)NC(=O)[C@H](Cc1ccc(O)cc1)NC(=O)[C@@H](NC(=O)[C@H](CO)NC(=O)[C@H](Cc1ccc(O)cc1)NC(=O)[C@H](CC(=O)O)NC(=O)[C@H](CO)NC(=O)[C@@H](NC(=O)[C@H](Cc1ccccc1)NC(=O)[C@@H](NC(=O)CNC(=O)[C@H](CCC(N)=O)NC(=O)C(C)(C)NC(=O)[C@@H](N)Cc1ccc(O)cc1)[C@@H](C)O)[C@@H](C)O)[C@@H](C)CC)C(C)C)C(N)=O [mt-287]	exhibited activity at the GIP, GLP-1, and glucagon receptors	0.0124	94.35	0.0187	277.54	117.20	0.0093
CCCCCCCCCCCCCCCCCC(=O)NCCCC[C@H](NC(=O)[C@H](CO)NC(=O)[C@@H]1CCCN1C(=O)[C@@H]1CCCN1C(=O)[C@@H]1CCCN1C(=O)[C@H](C)NC(=O)CNC(=O)[C@H](CO)NC(=O)[C@H](CO)NC(=O)[C@@H]1CCCN1C(=O)CNC(=O)CNC(=O)[C@H](C)NC(=O)[C@H](CC(C)C)NC(=O)[C@H](CC(C)C)NC(=O)[C@H](Cc1c[nH]c2ccccc12)NC(=O)[C@H](CS)NC(=O)[C@@H](NC(=O)[C@H](Cc1ccccc1)NC(=O)[C@H](CCC(=O)O)NC(=O)C(C)(C)NC(=O)[C@H](C)NC(=O)[C@H](C)NC(=O)[C@H](CCC(N)=O)NC(=O)[C@H](CCCCN)NC(=O)[C@H](CC(=O)O)NC(=O)[C@H](CC(C)C)NC(=O)[C@H](Cc1ccc(O)cc1)NC(=O)[C@@H](NC(=O)[C@H](CO)NC(=O)[C@H](Cc1ccc(O)cc1)NC(=O)[C@H](CC(=O)O)NC(=O)[C@H](CO)NC(=O)[C@@H](NC(=O)[C@H](Cc1ccccc1)NC(=O)[C@@H](NC(=O)CNC(=O)[C@H](CCC(N)=O)NC(=O)C(C)(C)NC(=O)[C@@H](N)Cc1ccc(O)cc1)[C@@H](C)O)[C@@H](C)O)[C@@H](C)CC)C(C)C)C(N)=O [mt-288]	exhibited activity at the GIP, GLP-1, and glucagon receptors	0.0138	84.78	0.0207	250.72	79.56	0.0137
CC[C@H](C)[C@H](NC(=O)[C@H](CO)NC(=O)[C@H](Cc1ccc(O)cc1)NC(=O)[C@H](CC(=O)O)NC(=O)[C@H](CO)NC(=O)[C@@H](NC(=O)[C@H](Cc1ccccc1)NC(=O)[C@@H](NC(=O)CNC(=O)[C@H](CCC(N)=O)NC(=O)C(C)(C)NC(=O)[C@@H](N)Cc1ccc(O)cc1)[C@@H](C)O)[C@@H](C)O)C(=O)N[C@@H](Cc1ccc(O)cc1)C(=O)N[C@@H](CC(C)C)C(=O)N[C@@H](CC(=O)O)C(=O)N[C@@H](CCCCN)C(=O)N[C@@H](CCC(N)=O)C(=O)N[C@@H](C)C(=O)N[C@@H](C)C(=O)NC(C)(C)C(=O)N[C@@H](CCC(=O)O)C(=O)N[C@@H](Cc1ccccc1)C(=O)N[C@H](C(=O)N[C@@H](CS)C(=O)N[C@@H](Cc1c[nH]c2ccccc12)C(=O)N[C@@H](CC(C)C)C(=O)N[C@@H](CC(C)C)C(=O)N[C@@H](C)C(=O)NCC(=O)NCC(=O)N1CCC[C@H]1C(=O)N[C@@H](CO)C(=O)N[C@@H](CO)C(=O)NCC(=O)N[C@@H](C)C(=O)N1CCC[C@H]1C(=O)N1CCC[C@H]1C(=O)N1CCC[C@H]1C(=O)N[C@@H](CO)C(=O)N[C@@H](CCCCN)C(N)=O)C(C)C [mt-289]	exhibited activity at the GIP, GLP-1, and glucagon receptors	0.0144	81.25	0.0766	67.75	46.58	0.0234
